Assays:
[1] = Phase 1 open-label crossover drug-drug interaction study: pharmacokinetics of warfarin with or without ethyl eicosapentaenoate; conditions: for AUC0-inf LSGM (least squares geometric mean) / Cmax LSGM (least squares geometric mean): W = warfarin (25 mg) administered alone; for effect of co-administration with ethyl eicosapentaenoate on Tmax: compared with Tmax when administered alone; for AUC0-inf / AUC0-last / Cmax / Tmax / Kel: plasma
Excerpt: Twenty-five out of the twenty-six enrolled subjects completed the study. One enrolled subject withdrew consent and disconsinuted prematurely. […] On each of Day 8 through Day 35, all subjects received about 4 g of ethyl eicosapentaenoate (oral) as described herein.

[2] = test system: international normalized ratio (INR); assay: Phase 1 drug-drug interaction study: anticoagulation pharmacodynamics of warfarin (INR); type: in vivo, healthy subjects; set-up: AUCINR Mean (SD) / AUCINR Median / AUCINR LSGM: unit not given beside the values
Excerpt: Primary anticoagulation pharmacodynamic endpoints were maximum international normalized ratio (INRmax) and plasma international normalized ratio time curve (AUCINR).

[3] = warfarin 25 mg + ethyl eicosapentaenoate 4 g
[4] = least squares geometric mean, mixed models

| SMILES | AUC0-inf LSGM (least squares geometric mean) [1] | Cmax LSGM (least squares geometric mean) [1] [ng/mL] | effect of co-administration with ethyl eicosapentaenoate on Tmax [1] | AUC0-inf ([1]; oral warfarin 25 mg alone) | AUC0-last ([1]; oral warfarin 25 mg alone) | Cmax ([1]; oral warfarin 25 mg alone) | Tmax ([1]; oral warfarin 25 mg alone) | AUC0-inf [1, 3] | AUC0-last [1, 3] | Cmax [1, 3] | Kel [1, 3] | Tmax [1, 3] | further results |
| --- | --- | --- | --- | --- | --- | --- | --- | --- | --- | --- | --- | --- | --- |
| CC(=O)C[C@H](c1ccccc1)c1c(O)c2ccccc2oc1=O [R-Warfarin, R-warfarin] | 80,486 ng · h/mL | 1659.6 | did not significantly affect | 82,620 (19,725) ng · h/mL | 77,539 (17,374) ng · h/mL | 1766 (673) ng/mL | 1.0 (0.5, 9.0) h | 82,460 (22,798) ng · h/mL | 77,117 (19,505) ng · h/mL | 1865 (592) ng/mL | 0.016 (0.005) 1/h | 1.0 (0.5, 1.5) h |  |
| CC(=O)C[C@@H](c1ccccc1)c1c(O)c2ccccc2oc1=O [S-Warfarin, S-warfarin] | 58,344 ng · h/mL | 1715.9 | did not significantly affect | 60,216 (15,009) ng · h/mL | 59,253 (15,429) ng · h/mL | 1836 (729) ng/mL | 1.0 (0.5, 9.0) h | 60,253 (16,204) ng · h/mL | 59,134 (16,451) ng · h/mL | 1973 (616) ng/mL | 0.020 (0.005) 1/h | 1.0 (0.5, 1.5) h | Kel ([1]; oral warfarin 25 mg alone): 0.020 (0.005) 1/h |
| CC(=O)CC(c1ccccc1)c1c(O)c2ccccc2oc1=O (stereo not drawn) [Warfarin, warfarin] |  |  |  |  |  |  |  |  |  |  |  |  | AUCINR, concomitant vs warfarin alone ([2]; in vivo): similar; INRmax, concomitant vs warfarin alone ([2]; in vivo): similar; AUCINR LSGM [2, 4]: 216.2; INRmax LSGM [2, 4]: 1.80; Median time to INRmax (TINRmax), co-administered vs warfarin alone ([2]; p=0.026): significantly lower; TINRmax Median ([2]; time to INRmax, warfarin 25 mg, EPA 4 g): 48.0 h; AUCINR Mean (SD) ([2]; warfarin 25 mg, EPA 4 g): 217.8 (27.7); AUCINR Median ([2]; warfarin 25 mg, EPA 4 g): 213.4; INRmax Mean (SD) ([2]; warfarin 25 mg, EPA 4 g): 1.86 (0.48); INRmax Median ([2]; warfarin 25 mg, EPA 4 g): 1.74 |
| CC/C=C\C/C=C\C/C=C\C/C=C\C/C=C\CCCC(=O)OCC [ethyl eicosapentaenoate, all-cis eicosa-5,8,11,14,17-pentaenoic acid ethyl ester] |  |  |  |  |  |  |  |  |  |  |  |  | anticoagulation pharmacodynamic effects compared to warfarin alone ([2]; in vivo): did not have an effect |
